{
  "source": "patent US20190351006A1",
  "about": "“METHODS OF ADMINISTRATION OF NMDA RECEPTOR AGONISTS” (Naurex Inc., priority 2017, published 2019)",
  "key": {"[1]": {"tested_on": "scPCP-treated mice", "experiment": "Novel object recognition (NOR) in subchronic PCP (scPCP) mice", "assay_type": "in vivo, Male C57BL/6J mice", "description": "Animals: Male C57BL/6J mice 22-25 g (21/2 to 3 month old) were used is these studies. Drugs: Rapastinel was obtained from SAI Life Sciences (India). Rapastinel, PCP, and ketamine were dissolved in 0.9% sterile saline (Sal). PCP and ketamine were administered intraperitoneally (ip), at a volume of 10 mL/kg body weight. Rapastinel was given subcutaneously (subcu), and rapamycin was given intracerebroventricularly (icy). Drug Treatments: Male C57BL/6J mice were randomly assigned to treatment groups of 10 per group. To develop the cognitive deficit, groups of 10 mice were treated with PCP (10 mg/kg i.p., twice a day for 7 days) followed by a 7-day washout period. Following the washout period, the subchronic PCP mice were tested to determine that an NOR deficit had been established. See Rajagopal et al 3,4. See FIG. 7, for treatment schedules. Behavior, in vivo Microdialysis (MD) and ICV Procedures—The procedures have been described in detail in References 3,10,11,12,13. See FIG. 7. for pictorial representations of drug treatment protocols. Rapastinel's ability to restore episodic memory (NOR) and cognitive flexibility (RL), like its antidepressant action in rodents, is mTOR dependent as indicated by blockade by ICV rapamycin. […] Increase in cortical DA efflux, in transient and subchronic rescue by rapastinel, may be important for triggering neuroplastic changes in AMPAR modulation of the activity of principal neurons in mPFC and HIP."}, "[2]": {"tested_on": "scPCP-treated mice", "experiment": "Reversal learning (RL) task in subchronic PCP mice", "assay_type": "in vivo, Male C57BL/6J mice", "description": "(§1) Animals: Male C57BL/6J mice 22-25 g (21/2 to 3 month old) were used is these studies. Drugs: Rapastinel was obtained from SAI Life Sciences (India). Rapastinel, PCP, and ketamine were dissolved in 0.9% sterile saline (Sal). PCP and ketamine were administered intraperitoneally (ip), at a volume of 10 mL/kg body weight. Rapastinel was given subcutaneously (subcu), and rapamycin was given intracerebroventricularly (icy). Drug Treatments: Male C57BL/6J mice were randomly assigned to treatment groups of 10 per group. To develop the cognitive deficit, groups of 10 mice were treated with PCP (10 mg/kg i.p., twice a day for 7 days) followed by a 7-day washout period. Following the washout period, the subchronic PCP mice were tested to determine that an NOR deficit had been established. See Rajagopal et al 3,4. See FIG. 7, for treatment schedules. Behavior, in vivo Microdialysis (MD) and ICV Procedures—The procedures have been described in detail in References 3,10,11,12,13. See FIG. 7. for pictorial representations of drug treatment protocols. Rapastinel's ability to restore episodic memory (NOR) and cognitive flexibility (RL), like its antidepressant action in rodents, is mTOR dependent as indicated by blockade by ICV rapamycin. […]"}, "[3]": {"tested_on": "C57BL/6J mice", "experiment": "In vivo microdialysis of neurotransmitter efflux in mPFC and HIP", "parameters": "species or system Male C57BL/6J mice", "conditions": "rapastinel 1 mg/kg subcu, ketamine 30 mg/kg", "description": "as §1"}, "[4]": {"conditions": "PCP 10 mg/kg i.p. twice a day for 7 days, then 7-day washout"}},
  "note": "Peptide text beside a SMILES is read from it.",
  "data": [
    {"smiles": "c1ccc(C2(N3CCCCC3)CCCCC2)cc1", "note": "[PCP, reference compound]", "values": [
      {"measurement": "DI in NOR vs vehicle-treated mice", "setting": "[1]; [4]", "value": "reduced DI"},
      {"measurement": "Percent correct responses in RL vs veh-treated mice", "setting": "[2]; [4]", "value": "reduced percent correct responses"}
    ]},
    {"smiles": "CNC1(c2ccccc2Cl)CCCCC1=O", "note": "(stereo not drawn) [Ketamine, ketamine, reference compound]", "values": [
      {"measurement": "Neurotransmitter efflux in mPFC", "setting": "[3]", "value": "very large increases in the efflux of ACh, DA, 5-HT, DOPAC, 5-HIAA, and glutamate, and serine"}
    ]},
    {"smiles": "C[C@@H](O)[C@H](N)C(=O)N1CCC[C@H]1C(=O)N1CCC[C@H]1C(=O)N[C@H](C(N)=O)[C@@H](C)O", "note": "[rapastinel] (H-TPPT-NH2)", "values": [
      {"measurement": "Duration of rescue of NOR deficit after subchronic rapastinel, 5 days", "setting": "[1]; scPCP mice, 1 mg/kg sc, b.i.d. for 5 days", "value": "at least 10 weeks"},
      {"measurement": "NOR deficit (DI), acute rapastinel", "setting": "[1]; scPCP mice, 1 mg/kg subcu, 30 min before AT", "value": "rescued NOR deficit"},
      {"measurement": "Reversal of scPCP-induced NOR deficit, 5 day vs 3 day treatment", "setting": "[1]; scPCP mice, 1 mg/kg subcu, b.i.d. for 5 days", "value": "longer compared to 3 day treatment"},
      {"measurement": "NOR after a single acute dose once the subchronic effect had ended", "setting": "[1]; scPCP mice, single dose 1 mg/kg sc, 30 min prior to AT, week 10 (or week 11)", "value": "restored NOR"},
      {"measurement": "Neurotransmitter efflux in mPFC", "setting": "[3]", "value": "small selective increase in DA efflux"},
      {"measurement": "RL deficit (percent correct responses), acute rapastinel", "setting": "[2]; scPCP mice, 1 mg/kg sc, 30 min before reversal phase of the RL task", "value": "rescued RL deficit"}
    ]}
  ]
}
